The results in this text go back to paper PMC3517602 (PLoS ONE, 2012).

This test has as its target T1, neuropeptide Y Y1 receptor (Y1R) (Homo sapiens, UniProt P25929).
T1 construct: gene NPY1R
T1 sequence (P25929 1-384): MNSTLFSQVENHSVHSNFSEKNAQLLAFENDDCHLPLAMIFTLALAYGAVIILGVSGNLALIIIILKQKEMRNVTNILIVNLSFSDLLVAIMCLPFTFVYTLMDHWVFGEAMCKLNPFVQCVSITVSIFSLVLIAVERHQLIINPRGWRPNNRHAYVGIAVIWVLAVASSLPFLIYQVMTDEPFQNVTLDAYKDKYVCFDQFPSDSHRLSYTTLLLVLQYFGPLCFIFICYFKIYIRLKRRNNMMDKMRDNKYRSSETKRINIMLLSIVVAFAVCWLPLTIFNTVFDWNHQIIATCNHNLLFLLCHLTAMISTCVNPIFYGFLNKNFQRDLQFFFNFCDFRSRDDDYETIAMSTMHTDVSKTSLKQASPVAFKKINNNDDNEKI
The test is described as follows: radioligand saturation binding on whole MCF-7 (L) cells. The test is classed as cell-based.

Each structure is given as a SMILES string.

By Kd is commonly meant the constant that tells how readily two partners part at equilibrium. For the compound `CCC(=O)/N=C(/N)NCCC[C@@H](NC(=O)C(c1ccccc1)c1ccccc1)C(=O)NCc1ccc(O)cc1` [[^3H]-UR-MK114], binding was put at a Kd of 5 nM. This lies in the single-digit nanomolar range.
